Calls of active or inactive are those of the source.
Legend:
Prothrombin = Prothrombin (Bos taurus, UniProt P00735); test: thrombin protease inhibitors – biochemical, fluorescence polarization, uHTS hits, dose response (AID 602369); assay type: functional
[1] = target: T1, Apoptotic protease-activating factor 1 (Homo sapiens, UniProt O14727); assay type: functional
T1 sequence (O14727 whole entry): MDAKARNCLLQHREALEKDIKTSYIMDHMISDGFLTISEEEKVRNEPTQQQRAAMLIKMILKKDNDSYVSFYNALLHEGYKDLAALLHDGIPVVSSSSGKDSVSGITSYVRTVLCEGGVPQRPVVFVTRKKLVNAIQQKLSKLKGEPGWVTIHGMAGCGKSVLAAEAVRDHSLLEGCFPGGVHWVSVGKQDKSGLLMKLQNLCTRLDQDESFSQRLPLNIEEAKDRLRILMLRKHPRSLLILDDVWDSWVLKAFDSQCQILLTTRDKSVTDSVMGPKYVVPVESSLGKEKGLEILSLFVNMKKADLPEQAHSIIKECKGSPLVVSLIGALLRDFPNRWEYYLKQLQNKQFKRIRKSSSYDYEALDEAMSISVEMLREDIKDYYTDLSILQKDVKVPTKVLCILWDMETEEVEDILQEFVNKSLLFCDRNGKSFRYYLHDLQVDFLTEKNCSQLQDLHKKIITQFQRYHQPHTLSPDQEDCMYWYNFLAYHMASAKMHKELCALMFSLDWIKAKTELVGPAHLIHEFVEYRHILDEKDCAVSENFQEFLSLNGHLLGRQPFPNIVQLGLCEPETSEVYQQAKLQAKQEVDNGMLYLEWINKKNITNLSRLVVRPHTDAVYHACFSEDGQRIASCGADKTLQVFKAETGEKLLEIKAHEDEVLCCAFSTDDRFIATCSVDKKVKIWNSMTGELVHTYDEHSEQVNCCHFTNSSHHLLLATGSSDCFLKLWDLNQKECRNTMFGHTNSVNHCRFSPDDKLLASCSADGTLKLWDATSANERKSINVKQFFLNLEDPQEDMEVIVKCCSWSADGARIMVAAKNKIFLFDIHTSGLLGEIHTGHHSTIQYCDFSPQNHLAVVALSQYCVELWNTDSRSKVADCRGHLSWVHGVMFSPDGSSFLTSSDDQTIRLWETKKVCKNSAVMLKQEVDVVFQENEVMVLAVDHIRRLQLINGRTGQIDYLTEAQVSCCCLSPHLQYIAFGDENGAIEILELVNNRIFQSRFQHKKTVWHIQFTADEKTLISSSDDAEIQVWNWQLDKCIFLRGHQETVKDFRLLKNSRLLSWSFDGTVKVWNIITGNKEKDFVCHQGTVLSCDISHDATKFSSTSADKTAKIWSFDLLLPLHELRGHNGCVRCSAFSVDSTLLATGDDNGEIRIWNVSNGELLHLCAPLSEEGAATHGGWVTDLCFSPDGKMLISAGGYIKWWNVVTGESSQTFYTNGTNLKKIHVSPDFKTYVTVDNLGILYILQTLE

[2] = target: Delta-type opioid receptor (Homo sapiens, UniProt P41143); test: Counterscreen for agonists of heterodimerization of the mu 1 (OPRM1) and delta 1 (OPRD1) opioid receptors: Luminescence-based cell-based high throughput dose response assay to identify agonists of OPRD1 homodimerization. [Related pubchem assays (depositor defined):AID504326, AID504355, AID504692, AID504904, AID504905]; assay type: functional
Chain of Delta-type opioid receptor (P41143 whole entry): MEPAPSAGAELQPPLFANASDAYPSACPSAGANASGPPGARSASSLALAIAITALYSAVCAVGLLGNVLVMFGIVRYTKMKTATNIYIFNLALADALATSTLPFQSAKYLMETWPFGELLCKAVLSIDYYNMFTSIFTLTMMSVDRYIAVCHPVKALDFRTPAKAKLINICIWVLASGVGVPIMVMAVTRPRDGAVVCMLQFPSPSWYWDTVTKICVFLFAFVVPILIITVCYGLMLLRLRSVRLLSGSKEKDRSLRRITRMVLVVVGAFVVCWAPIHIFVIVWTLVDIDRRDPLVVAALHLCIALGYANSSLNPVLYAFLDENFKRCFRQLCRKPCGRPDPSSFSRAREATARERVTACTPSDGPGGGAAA

Mu-type opioid receptor = Mu-type opioid receptor (Homo sapiens, UniProt P35372); test: Counterscreen for agonists of heterodimerization of the mu 1 (OPRM1) and delta 1 (OPRD1) opioid receptors: Luminescence-based cell-based high throughput dose response assay to identify agonists of OPRM1 homodimerization.; assay type: functional;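 also: U2OS cells expressing OPRM1 and beta-arrestin as split beta-galactosidase partners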
Chain of Mu-type opioid receptor (P35372 whole entry): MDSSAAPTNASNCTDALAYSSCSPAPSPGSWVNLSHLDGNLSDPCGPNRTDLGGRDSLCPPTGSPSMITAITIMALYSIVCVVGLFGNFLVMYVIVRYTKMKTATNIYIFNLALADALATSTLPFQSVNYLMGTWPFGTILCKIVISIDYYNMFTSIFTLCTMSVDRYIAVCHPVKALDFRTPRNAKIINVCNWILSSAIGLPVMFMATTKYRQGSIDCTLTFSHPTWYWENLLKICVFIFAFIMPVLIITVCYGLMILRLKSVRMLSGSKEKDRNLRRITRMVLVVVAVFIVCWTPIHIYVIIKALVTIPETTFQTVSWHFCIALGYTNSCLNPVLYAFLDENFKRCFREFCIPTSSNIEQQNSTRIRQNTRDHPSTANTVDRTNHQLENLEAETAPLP

[3] = target: 5-hydroxytryptamine receptor 5A (Homo sapiens, UniProt P47898); test: Counterscreen for agonists of OPRM1-OPRD1 heterodimerization: luminescence-based cell-based high throughput dose response assay to identify agonists of 5-hydroxytryptamine (serotonin) 5A receptor (HTR5A). [Related pubchem assays (depositor defined):AID504326, AID504355, AID504692, AID504904, AID504905]; assay type: functional
Chain of 5-hydroxytryptamine receptor 5A (P47898 whole entry): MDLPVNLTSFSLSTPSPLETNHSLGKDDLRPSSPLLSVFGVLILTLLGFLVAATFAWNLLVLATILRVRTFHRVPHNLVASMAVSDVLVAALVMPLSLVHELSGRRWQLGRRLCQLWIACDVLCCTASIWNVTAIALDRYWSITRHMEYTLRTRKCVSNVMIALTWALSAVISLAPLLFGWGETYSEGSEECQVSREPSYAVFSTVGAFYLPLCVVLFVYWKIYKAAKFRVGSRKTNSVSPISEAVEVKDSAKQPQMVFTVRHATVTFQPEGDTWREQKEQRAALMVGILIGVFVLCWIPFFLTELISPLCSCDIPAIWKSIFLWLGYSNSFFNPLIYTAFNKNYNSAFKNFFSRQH

[4] = target: 26S proteasome non-ATPase regulatory subunit 14 (Homo sapiens, UniProt O00487); test: inhibition of proteasome subunit RPN11 – biochemical, fluorescence polarization, uHTS hits, confirmation (AID 602368); assay type: functional
Chain of 26S proteasome non-ATPase regulatory subunit 14 (O00487 whole entry): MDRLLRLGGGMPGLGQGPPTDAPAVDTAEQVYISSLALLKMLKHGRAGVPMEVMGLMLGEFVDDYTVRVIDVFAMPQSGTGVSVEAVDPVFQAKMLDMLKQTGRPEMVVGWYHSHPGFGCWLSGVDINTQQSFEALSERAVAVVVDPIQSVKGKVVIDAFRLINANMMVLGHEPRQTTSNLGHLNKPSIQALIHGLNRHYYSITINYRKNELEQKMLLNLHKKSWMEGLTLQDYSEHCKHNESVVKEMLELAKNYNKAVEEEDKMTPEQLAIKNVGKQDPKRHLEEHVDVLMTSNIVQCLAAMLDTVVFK

[5] = target: 72 kDa type IV collagenase (Homo sapiens, UniProt P08253); test: Dose Response validation of uHTS RPN11 inhibitor hits using a MMP-2 Fluorescence assay.; assay type: functional
Chain of 72 kDa type IV collagenase (P08253 whole entry): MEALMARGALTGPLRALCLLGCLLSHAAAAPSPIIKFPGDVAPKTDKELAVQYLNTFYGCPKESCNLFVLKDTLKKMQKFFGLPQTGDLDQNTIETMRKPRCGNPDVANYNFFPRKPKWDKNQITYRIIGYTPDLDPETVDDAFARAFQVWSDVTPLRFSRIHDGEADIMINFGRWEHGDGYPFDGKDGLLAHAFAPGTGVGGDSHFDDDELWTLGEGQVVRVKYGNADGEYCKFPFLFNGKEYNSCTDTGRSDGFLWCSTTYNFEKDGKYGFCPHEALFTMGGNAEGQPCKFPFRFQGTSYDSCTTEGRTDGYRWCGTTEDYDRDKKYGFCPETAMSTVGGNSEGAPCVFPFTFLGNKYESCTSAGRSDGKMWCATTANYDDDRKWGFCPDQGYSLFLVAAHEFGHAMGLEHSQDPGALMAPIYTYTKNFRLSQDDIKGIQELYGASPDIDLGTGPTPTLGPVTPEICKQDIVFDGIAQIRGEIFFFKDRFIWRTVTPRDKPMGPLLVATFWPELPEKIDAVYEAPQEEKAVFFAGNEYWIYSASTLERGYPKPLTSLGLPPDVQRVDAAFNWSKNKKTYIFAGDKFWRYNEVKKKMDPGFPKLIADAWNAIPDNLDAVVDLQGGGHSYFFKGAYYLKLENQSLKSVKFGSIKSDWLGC

[6] = target: Glucose-6-phosphate 1-dehydrogenase (Homo sapiens, UniProt P11413); test: inhibition of Homo sapiens G6PD, dose series – biochemical, fluorescence, selectivity assay for P. falciparum G6PD inhibitor project, dose response (AID 504792); assay type: functional
Chain of Glucose-6-phosphate 1-dehydrogenase (P11413 whole entry): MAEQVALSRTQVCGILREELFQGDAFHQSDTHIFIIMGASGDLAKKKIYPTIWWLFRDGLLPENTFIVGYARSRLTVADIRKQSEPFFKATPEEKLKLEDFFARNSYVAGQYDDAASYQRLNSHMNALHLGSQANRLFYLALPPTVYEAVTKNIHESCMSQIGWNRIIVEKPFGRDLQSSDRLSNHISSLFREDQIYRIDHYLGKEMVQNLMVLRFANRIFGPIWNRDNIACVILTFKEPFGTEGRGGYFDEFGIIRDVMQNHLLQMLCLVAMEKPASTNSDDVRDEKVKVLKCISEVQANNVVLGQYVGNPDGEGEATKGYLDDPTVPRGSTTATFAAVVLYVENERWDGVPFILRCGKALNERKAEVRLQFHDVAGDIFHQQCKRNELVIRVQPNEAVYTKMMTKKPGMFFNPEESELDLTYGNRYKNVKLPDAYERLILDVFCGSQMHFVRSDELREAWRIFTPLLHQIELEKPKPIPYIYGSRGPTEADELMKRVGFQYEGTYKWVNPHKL

[7] = viability loss in THP-1 monocytes – THP-1 cells, cytotoxicity control for Vif-APOBEC3G degradation inhibitor project, dose response (AID 1117359); assay type: functional; settings: THP-1
[8] = target: T2, Mannose-6-phosphate isomerase (Homo sapiens, UniProt P34949); test: MPI inhibition at elevated mannose 6-phosphate – biochemical, fluorescence intensity, high mannose 6-phosphate, primary screen (AID 1220)
T2 sequence (P34949 whole entry): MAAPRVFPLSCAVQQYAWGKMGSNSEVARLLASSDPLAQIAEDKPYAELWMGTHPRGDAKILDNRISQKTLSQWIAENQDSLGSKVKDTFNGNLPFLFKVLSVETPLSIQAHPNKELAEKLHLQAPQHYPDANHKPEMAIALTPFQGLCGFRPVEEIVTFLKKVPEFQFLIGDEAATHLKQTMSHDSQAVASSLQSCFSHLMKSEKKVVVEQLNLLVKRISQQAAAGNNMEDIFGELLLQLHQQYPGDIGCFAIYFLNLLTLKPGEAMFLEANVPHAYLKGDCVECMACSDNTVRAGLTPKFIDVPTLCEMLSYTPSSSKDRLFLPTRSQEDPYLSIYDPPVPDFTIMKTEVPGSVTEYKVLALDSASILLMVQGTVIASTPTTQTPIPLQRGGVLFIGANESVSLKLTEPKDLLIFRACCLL

Protein Tat = target: T3, Protein Tat (Human immunodeficiency virus type 1 group M subtype B (isolate HXB2)(HIV-1), UniProt P04608); assay type: functional;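 also: tat binding to TAR RNA read out by fluorescence polarization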
T3 sequence (P04608 whole entry): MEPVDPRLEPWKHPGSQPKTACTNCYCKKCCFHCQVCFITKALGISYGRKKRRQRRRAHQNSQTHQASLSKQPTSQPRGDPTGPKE

Streptokinase A = target: T4, Streptokinase A (Streptococcus pyogenes serotype M1, UniProt P10520); test: viability-normalized secreted streptokinase activity reduction – plasminogen activation absorbance, OD405, dose response (AID 1914); assay type: functional, Streptococcus pyogenes M1 GAS;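 also: secreted streptokinase activity via plasminogen activation per viability signal from cell pellet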
T4 sequence (P10520 whole entry): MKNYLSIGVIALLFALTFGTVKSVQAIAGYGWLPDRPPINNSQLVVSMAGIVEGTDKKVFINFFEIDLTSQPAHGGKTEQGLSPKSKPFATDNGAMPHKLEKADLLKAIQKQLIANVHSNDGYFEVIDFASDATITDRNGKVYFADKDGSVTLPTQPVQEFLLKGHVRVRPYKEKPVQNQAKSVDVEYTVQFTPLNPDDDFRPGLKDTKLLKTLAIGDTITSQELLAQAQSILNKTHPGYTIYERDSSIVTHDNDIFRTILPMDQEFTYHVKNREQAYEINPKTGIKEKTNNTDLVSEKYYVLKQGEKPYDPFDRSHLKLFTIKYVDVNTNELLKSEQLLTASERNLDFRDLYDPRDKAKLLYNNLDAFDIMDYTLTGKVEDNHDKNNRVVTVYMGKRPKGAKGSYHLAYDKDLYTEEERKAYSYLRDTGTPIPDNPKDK

BJ [9] = test: BJ-TERT-LT-ST fibroblast viability loss – cell-based, RAS-independent, luminescence, dose response (AID 1935); assay type: functional; settings: Homo sapiens;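 also: BJ fibroblasts immortalized with TERT plus LT and ST oncogenes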
[10] = target: T5, Tyrosine-protein phosphatase non-receptor type 22 (Homo sapiens, UniProt Q9Y2R2); assay type: functional
T5 sequence (Q9Y2R2 whole entry): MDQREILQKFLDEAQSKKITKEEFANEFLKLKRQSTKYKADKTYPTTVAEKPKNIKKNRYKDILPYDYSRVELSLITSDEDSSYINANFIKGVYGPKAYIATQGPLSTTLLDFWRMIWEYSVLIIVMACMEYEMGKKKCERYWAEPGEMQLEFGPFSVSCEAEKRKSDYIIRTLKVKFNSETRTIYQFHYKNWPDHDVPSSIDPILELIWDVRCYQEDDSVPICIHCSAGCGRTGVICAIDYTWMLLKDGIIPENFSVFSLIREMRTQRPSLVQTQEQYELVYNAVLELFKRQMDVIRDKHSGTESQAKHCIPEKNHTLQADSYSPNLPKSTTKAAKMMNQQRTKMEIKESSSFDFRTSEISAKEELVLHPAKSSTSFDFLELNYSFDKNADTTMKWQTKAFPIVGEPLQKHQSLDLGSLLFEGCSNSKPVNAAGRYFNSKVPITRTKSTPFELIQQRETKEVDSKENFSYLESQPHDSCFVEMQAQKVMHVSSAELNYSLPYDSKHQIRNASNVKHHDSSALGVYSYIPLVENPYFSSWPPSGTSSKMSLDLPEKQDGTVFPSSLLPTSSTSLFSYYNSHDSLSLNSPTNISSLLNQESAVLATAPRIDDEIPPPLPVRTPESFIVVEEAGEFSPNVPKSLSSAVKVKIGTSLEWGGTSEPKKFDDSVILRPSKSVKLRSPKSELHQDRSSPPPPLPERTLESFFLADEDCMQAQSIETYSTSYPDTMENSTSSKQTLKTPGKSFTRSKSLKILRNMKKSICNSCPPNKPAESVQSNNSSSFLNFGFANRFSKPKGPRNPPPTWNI

[11] = target: T6, Tyrosine-protein phosphatase non-receptor type 7 (Homo sapiens, UniProt P35236); assay type: functional
T6 sequence (P35236 whole entry): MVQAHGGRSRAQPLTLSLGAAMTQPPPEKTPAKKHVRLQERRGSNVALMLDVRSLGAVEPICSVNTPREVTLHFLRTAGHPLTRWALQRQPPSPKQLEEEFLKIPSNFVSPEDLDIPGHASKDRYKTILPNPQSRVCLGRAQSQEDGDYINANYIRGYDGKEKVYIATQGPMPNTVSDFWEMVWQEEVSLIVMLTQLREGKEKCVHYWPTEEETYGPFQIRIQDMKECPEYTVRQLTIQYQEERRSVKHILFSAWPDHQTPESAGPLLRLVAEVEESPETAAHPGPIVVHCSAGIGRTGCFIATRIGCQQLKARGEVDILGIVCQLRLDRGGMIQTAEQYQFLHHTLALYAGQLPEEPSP

BJ [12] = test: cells; assay type: functional, cell-based; settings: Homo sapiens
Streptococcus = test: GAS UMAA2166 growth inhibition – luminescence, BacTiterGlo, counter-screen for streptokinase expression inhibitor project, dose response (AID 1915); assay type: functional, organism-based;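 also: potency for reduction of bacterial viability or growth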
BJ [13] = test: BJ-TERT fibroblast viability loss – cell-based, RAS-independent, luminescence, dose response (AID 1933); assay type: functional; settings: Homo sapiens
[14] = system: Streptococcus sp. 'group A'; test: Streptococcus pyogenes SK(-)GAS viability under kanamycin – luminescence, BacTiterGlo, confirmation, counter-screen for streptokinase expression inhibitor project, dose response (AID 1900); assay type: functional, organism-based
[15] = DRD fibroblast viability loss – cell-based, non-viral oncogenic, luminescence, dose response (AID 1934); assay type: functional; settings: Homo sapiens
[16] = target: T5, Tyrosine-protein phosphatase non-receptor type 22; assay type: functional; remark: listed apart in the source
Vero = test: cells; assay type: functional; settings: Chlorocebus sabaeus

In the case of Cc1cc(N2CCN(c3ccc([N+](=O)[O-])c4cccnc34)CC2)c2ccccc2n1, the IC50 (Prothrombin) is reported as 27.7 µM (active), the IC50 [1] is reported as 34 µM (active) and the EC50 [2] is reported as > 92.5 µM (inactive). The EC50 (Mu-type opioid receptor) was > 92.5 µM (inactive), the EC50 [3] was > 92.5 µM (inactive) and the IC50 [4] was 27.7 µM (active). The IC50 [5] was > 100 µM (inactive).

For CCOc1ccc(CNc2ccc(N3CCCC3)cc2)cc1, the IC50 [6] was > 80 µM (inactive), the CC50 [7] was > 40 µM (active) and the IC50 [8] was > 50 µM (not active). The IC50 (Protein Tat) was 75.3 µM (inconclusive).

For CC1[C@H]2Cc3ccc(O)cc3[C@]1(C)CCN2C (stereo not given in full), the EC50 [2] was > 92.4 µM (inactive), the EC50 (Mu-type opioid receptor) was > 92.4 µM (inactive) and the EC50 [3] was > 92.4 µM (inactive).

With O=C(N/N=C/c1ccccn1)c1ccc(Cl)c(Cl)c1 the EC50 (Streptokinase A) was > 150 µM (not active), the EC50 (BJ [9]) was > 150 µM (not active) and the IC50 [10] was > 79.4 µM (inactive). The IC50 [11] was > 79.4 µM (inactive), the EC50 (BJ [12]) was > 150 µM (not active) and the EC50 (Streptococcus) was 22.9 µM (active). For the same molecule, the EC50 (BJ [13]) was 21.6 µM (active), the EC50 [14] was 6.21 µM (active) and the EC50 [15] was > 150 µM (not active). For the same molecule, the IC50 [16] was > 79.4 µM (inactive) and the CC50 (Vero) was > 25 µM (active).

Source: ChEMBL document CHEMBL1201862, “PubChem BioAssay data set” (2004)
